Experiments:
[1] = literature solids; cited from earlier work
[2] = Storage of liquid tin(II) alkoxides under nitrogen or argon; settings: stored under a nitrogen or argon atmosphere
[3] = Solubility test of tin(II) alkoxides in organic solvents; format: physicochemical; settings: liquid tin(II) alkoxides; temperature range of 25-38° C.

For `CC[O][Sn][O]CC` [Tin(II) ethoxide, reference compound], which “Stability (moisture, oxygen, colour change)” value [1] is on record?
The value was “turned yellow rapidly, even when the product was dried and kept under vacuum”.

Which “Stability (moisture, oxygen, colour change)” value [1] does the source give for `CCCC[O-].CCCC[O-].[Sn+2]` [Tin(II) n-butoxide, tin(II) n-butoxide] here?
The value was “extremely moisture and oxygen sensitive”.

What about the “Storage stability (reactivity)” value [2] of the same molecule?
The value was “without any significant effect on their reactivity”.

Which “Solubility in common organic solvents” value [3] does the source give for tin(II) n-hexoxide here?
The value was “soluble in common organic solvents”.

With tin(II) n-octoxide as the molecule, how does the “Solubility in common organic solvents” value [3] read?
Its value is “soluble in common organic solvents”.
